Data on eight molecules can be found in patent US20200199681A1, “MDA-7 CANCER THERAPIES AND METHODS OF DETECTING BIOMOLECULES” (VIRGINIA COMMONWEATLH UNIVERSITY, priority 2016, published 2020).

For one assay, the system named is miR-221. In words: level of miR-221 by real time PCR (RQ-PCR, taqman probe). It is filed as cell-based, human. The note with it: for miR-221 levels: low doses alone: ATO 1 μM, hydrogen peroxide 10 μM, pyocyanin 50 μM. On the technique in general: Quantitative PCR measures a nucleic acid by following its amplification.
The subject of another assay is cancer cells. The note with it: cited from earlier work.
Another assay deals with U2OS cells. The note with it: cited from earlier work.
For assay [1], the system named is non-cancerous immortalized NOK cells. The settings on record: cited from earlier work.
The test system of a further assay is Hela and DU-145 cells. The note with it: cited from earlier work.

`Cn1c2cccc(=O)c-2nc2ccccc21` [pyocyanin]: the miR-221 levels result in the assay on miR-221 (MDA-MB-231 cells) was “did not alter”.

Arsenic trioxide: the miR-221 levels entry with miR-221 (MDA-MB-231 cells) is “did not alter”.

On to `C[S+]([O-])c1ccc(-c2nc(-c3ccncc3)c(-c3ccc(F)cc3)[nH]2)cc1` (stereo not drawn) [SB203580], for which, in the assay on cancer cells, the Ad.mda-7-induced apoptosis entry is recorded as “inhibits”.

`OO` [hydrogen peroxide]: the miR-221 levels result in the assay with miR-221 (MDA-MB-231 cells) is “did not alter”.

As for `CC(=O)N[C@@H](CS)C(=O)O` [NAC, N-acetyl cysteine], the “effect on down regulation of miR-221 by ROS inducer with Ad.mda-7” value in the assay with miR-221 (MDA-MB-231 cells, pretreatment for 12 hours) is on record as “abrogated down regulation of miR-221”. In addition, the “cell death mediated by mda-7/IL-24” value in the assay with cancer cells is “inhibits”.

B1: Full length MDA-7/IL-24: full-length transcript with all 7 exons (protein, UniProt Q13007 1-206, looked up)
chain: MNFQQRLQSLWTLARPFCPPLLATASQMQMVVLPCLGFTLLLWSQVSGAQGQEFHFGPCQVKGVVPQKLWEAFWAVKDTMQAQDNITSARLLQQEVLQNVSDAESCYLVHTLLEFYLKTVFKNYHNRTVEVRTLKSFSTLANNFVLIVSQLQPSQENEMFSIRDSAHRRFLLFRRAFKQLDVEAALTKALGEVDILLTWMQKFYKL
modifications: full-length
notes: full-length transcript with all 7 exons
As for B1, in the assay on U2OS cells, the U2OS cell viability entry is recorded as “capable of reducing U2OS cell viability”. Besides, the “viability of NOK cells” value in assay [1] is on record as “no effect”.

B2: His-MDA-7: purified recombinant His tagged MDA-7/IL-24 protein (protein, UniProt Q13007 52-206, looked up)
Interleukin-24: QEFHFGPCQVKGVVPQKLWEAFWAVKDTMQAQDNITSARLLQQEVLQNVSDAESCYLVHTLLEFYLKTVFKNYHNRTVEVRTLKSFSTLANNFVLIVSQLQPSQENEMFSIRDSAHRRFLLFRRAFKQLDVEAALTKALGEVDILLTWMQKFYKL
modifications: His tag
notes: purified recombinant His tagged MDA-7/IL-24 protein
With B2, the miR-221 expression result in the assay with miR-221 (A549 cells (lack cognate receptor pairs)) is recorded as “remained unchanged”; with miR-221 (A549 cells overexpressing IL-20R2 or IL-22R1) it was “sensitive to miR-221 down regulation”; in the assay on miR-221 (DU-145 cells (both receptor types)), “decreased”.

B3: M1: MDA-7/IL-24 deletion mutant, signal peptide deleted (protein, UniProt Q13007 52-206, looked up)
Interleukin-24: QEFHFGPCQVKGVVPQKLWEAFWAVKDTMQAQDNITSARLLQQEVLQNVSDAESCYLVHTLLEFYLKTVFKNYHNRTVEVRTLKSFSTLANNFVLIVSQLQPSQENEMFSIRDSAHRRFLLFRRAFKQLDVEAALTKALGEVDILLTWMQKFYKL
modifications: signal peptide deleted
notes: MDA-7/IL-24 deletion mutant, signal peptide deleted
Regarding B3, the “tumor inhibitory effects of MDA-7/IL-24” value with Hela and DU-145 cells is given as “did not disrupt the tumor inhibitory effects”.
